Data: paper PMC10065799, “High-throughput profiling of sequence recognition by tyrosine kinases and SH2 domains using bacterial peptide display” (eLife, 2023)
One block for each sequence: values may come before it.

How the values were obtained:
Assay in all cases: pTyr-Var library bacterial peptide display kinase screen (enrichment scores)
[1] = target: T1, c-Abl kinase domain (Mus musculus, UniProt P00520); format: biochemical;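 also: log2 fold change in enrichment of variant over reference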
T1 sequence (P00520 242-493 limits assumed): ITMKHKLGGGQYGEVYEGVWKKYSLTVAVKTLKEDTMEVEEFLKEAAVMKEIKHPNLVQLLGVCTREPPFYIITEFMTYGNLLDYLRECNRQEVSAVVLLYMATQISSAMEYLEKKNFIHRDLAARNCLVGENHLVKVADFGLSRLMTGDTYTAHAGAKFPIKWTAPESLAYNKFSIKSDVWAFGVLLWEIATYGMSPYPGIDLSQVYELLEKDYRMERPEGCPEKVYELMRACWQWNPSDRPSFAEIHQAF

[2] = target: c-Src kinase domain (Homo sapiens, UniProt P12931); format: biochemical; conditions: sheet "Src";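 also: log2 fold change in enrichment of variant over reference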
[3] = system: EPHB1 kinase domain; format: biochemical, human; conditions: for Screen: sheet EPHB1, effect of the variant peptide relative to its reference peptide in the pTyr-Var library screen (enrichment scores); for Screen (variant relative to reference peptide, measured in the pTyr-Var library screen): sheet "EPHB1", variant seq vs reference seq, bacterial peptide display enrichment
[4] = system: EPHB2 kinase domain; format: biochemical, human; conditions: sheet EPHB2; effect of variant peptide relative to its reference peptide in the pTyr-Var library screen (enrichment scores);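 also: log2 fold change in enrichment of variant over reference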
[5] = system: Fer kinase domain; format: biochemical, mouse; conditions: sheet "Fer";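 also: log2 fold change in enrichment of variant over reference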
[6] = fig5-data2, sheet "Abl", Screen for the variant/reference peptide pair, pTyr-Var library
[7] = effect of the variant peptide relative to its reference peptide in the pTyr-Var library screen
[8] = sheet "Abl", effect of variant peptide relative to its reference peptide in pTyr-Var library screen (enrichment)
[9] = variant peptide versus its reference peptide in the pTyr-Var library screen
[10] = value of the variant peptide against its reference peptide in the pTyr-Var library screen with Fer

- Screen [1, 6]: 0.7498
Sequence: LEIETYRRLRD [KRT12_Y429_L433R]

Sequence: LERFIYNPEEF [HLA-DPB1_Y59_R61P_YF]
- Screen [2, 7]: 0.2405

- Screen [3]: -1.226
- Screen [4]: -0.4556
Sequence: LFEDRYLLGPS [ASS1_Y87_T91P_YF]

Sequence: LKLKAYRFSIS [LCT_Y974_V971L]
- Screen [2, 7]: 1.678

Sequence: LLTALYFISWG [KCNH2_Y780_R784W]
- Screen [2, 7]: 0.3693

Sequence: LMFPDYLPCSV [SAG_Y129_T125M]
- Screen [1, 8]: 0.9994

- Screen [1, 6]: 0.6191
Sequence: LMQAEYWHDPI [PPT1_Y185_V181M]

- Screen [4]: -1.197
Sequence: LNCDRYSAGLL [PDE6A_Y275_V277A]

- Screen ([5]; variant peptide relative to its reference peptide, pTyr-Var library screen enrichment): -0.5676
Sequence: LPVHFYSHVEH [PYGM_Y204_G205S]

- Screen [1, 8]: -1.268
Sequence: LSEEKYELKEG [TREM1_Y29_T25S]

- Screen [3]: 1.338
- Screen [4]: 1.457
Sequence: LVIIKYLPEWT [PSEN1_Y240_F237I]

Sequence: LWQTIYNLEAE [TNNT2_Y251_S249T]
- Screen [2, 9]: 0.4505

Sequence: MSGDVYSTDFF [NTRK2_Y702_R699G_YF]
- Screen [2, 9]: 0.7528

Sequence: NDENIYKGLPD [VAV3_Y141_D139N]
- Screen [2, 9]: 1.088

Sequence: NFFDLYGGEKF [PTPN11_Y66_D61N_YF]
- Screen [2, 9]: -0.03521

- Screen [1, 6]: 1.57
Sequence: NNFGNYNNQSS [HNRNPA1_Y318_D314N]

Sequence: PDSVDYPKKGF [CTSK_Y121_R122P_YF]
- Screen [2, 7]: 2.065
- Screen [1, 6]: -1.054
- Screen [5, 10]: 0.978

Sequence: PLDAEYFTLQI [TP53_Y327_G325A]
- Screen [2, 9]: 0.1358

Sequence: PLQHVYKIGGI [EEF1A2_Y254_D252H]
- Screen [2, 7]: -2.182
- Screen [3]: -0.7167

Sequence: PLRAFYLIARV [HLCS_Y635_D634Y_YF]
- Screen [2, 7]: 1.953

Sequence: PNRILYGDFWQ [MYH6_Y717_R721W]
- Screen [2, 7]: -0.3786

Sequence: PQAVTYATVKH [LILRB4_Y360_K362T]
- Screen [2, 7]: 2.009

- Screen [1, 6]: 0.583
Sequence: QHVPDYRQNGF [PCDHGA10_Y895_V899G_YF]

- Screen [1, 6]: 0.6322
Sequence: QQLQGYVPSNF [FRK_Y99_I100V_YF]

- Screen [5, 10]: -0.4962
Sequence: QRPFVYFFSFL [PTEN_Y176_R173P_YF]

Sequence: REVPVYTFSEP [FAM120B_Y368_D370Y_YF]
- Screen [2, 7]: 3.398
- Screen [5, 10]: 3.619
- Screen [3]: 0.7576

- Screen [1, 8]: 0.8642
Sequence: RGKDNYETSQL [SPP1_Y225_S224N]

- Screen [3]: 0.1225
Sequence: RHPEVYHHLGI [NVL_Y290_V295I]

Sequence: RLDGEYFTLQI [TP53_Y327_P322R]
- Screen [2, 9]: -0.8354
- Screen [1, 8]: 0.2276

- Screen [1, 6]: 1.149
Sequence: RLLRGYNQSAF [HLA-C_Y137_D138N_YF]

- Screen [3]: 0.4118
- Screen [4]: 0.3975
Sequence: RQNQEYEILMD [KRT39_Y379_L383M]

Sequence: RRIHRYRGHLW [VHL_Y112_S111R]
- Screen [2, 9]: -2.928
- Screen (variant relative to reference peptide, measured in the pTyr-Var library screen) [3]: -1.747

Sequence: RRIHSYRCHLW [VHL_Y112_G114C]
- Screen [2, 9]: -2.304
- Screen (variant relative to reference peptide, measured in the pTyr-Var library screen) [3]: -1.413

Sequence: RRIHSYRGHVW [VHL_Y112_L116V]
- Screen [2, 9]: -1.808
- Screen (variant relative to reference peptide, measured in the pTyr-Var library screen) [3]: -1.04

- Screen [3]: -0.2034
Sequence: RRNEEYCLLAS [ITK_Y198_D202A]

- Screen [1, 6]: 1.358
Sequence: SARVRYLMAEK [LDHB_Y173_F171V]

Sequence: SILTVYSKDNF [PANK2_Y400_A398T_YF]
- Screen [2, 9]: -1.709

Sequence: SPPEVYAIMRG [NTRK1_Y757_C752S]
- Screen [2, 9]: 0.1672

Sequence: STLEVYRCHPP [IL21R_Y317_S318R]
- Screen [2, 7]: -1.75

Sequence: SVTCTYSLALN [TP53_Y126_P128L]
- Screen [2, 9]: 1.349

- Screen [4]: -2.35
Sequence: TDIVAYSGWVQ [SPTBN2_Y477_R480W]

- Screen [1, 8]: -0.2404
Sequence: TDTAAYEERLR [SPTB_Y474_V478L]

- Screen [1, 6]: 1.02
Sequence: TGNPAYRSFSN [IL4R_Y497_A492T]

- Screen [1, 6]: 0.2401
Sequence: TLPAFYMENFS [GLB1_Y552_G554E]

Sequence: TSQSQYSSFRE [CCDC170_Y323_F324S]
- Screen [2, 7]: -1.483
- Screen [1, 6]: 2.786

Sequence: TTGGFYSFGGG [KRT24_Y120_A115T_YF]
- Screen [2, 7]: -0.1401
- Screen [5, 10]: -0.6603

Sequence: TTPAVYARVTK [CTRB2_Y246_A250T]
- Screen [2, 7]: 0.6652

- Screen [5, 10]: 3.227
Sequence: VDSAHYQLLET [DTX3L_Y385_K386Q]

- Screen [1, 6]: 0.3442
Sequence: VIKDKYPKAHF [APTX_Y209_R213H_YF]

- Screen [1, 8]: -5.31
Sequence: VKPENYRRLDV [VHL_Y175_I180V]

- Screen [3]: 1.362
Sequence: VRFVDYVLFRS [FAM189B_Y361_S358F]

- Screen [1, 6]: 1.288
Sequence: WDLTDYLMKIL [ACTB_Y188_R183W]
